Measurements taken from paper PMC9551036, “A selective and orally bioavailable VHL-recruiting PROTAC achieves SMARCA2 degradation in vivo” (Nature Communications, 2022).
“And” between values parts separate entries of the source, which are not always exact repeats. Equal entries are not always repeated. Where two headings read alike, the source gives them in different places.

How the values were obtained:
[1] = Pharmacokinetic analyses in mouse; assay type: in vivo; conditions: mouse, plasma; for AUC: read-out: AUC; for AUC(0-inf): read-out: AUCinf
Procedure: Compound concentrations in plasma aliquots were measured by quantitative HPLC-MS/MS using an internal standard. Calibration and quality control samples were prepared using blank plasma from untreated animals. Samples were precipitated with acetonitrile and injected into a HPLC system (Agilent 1200). Separation was performed by gradients of 5 mmol/L ammonium acetate pH 4.0 and acetonitrile with 0.1% formic acid on a 2.1 mm by 50 mm XBridge BEH C18 reversed-phase column with 2.5 µm particles (Waters). The HPLC was interfaced by ESI operated in positive ionisation mode to a triple quadrupole mass spectrometer (5000 or 6500+ Triple Quad System, SCIEX) operated in multiple reaction monitoring mode. Transitions were 532.4 to 432.8 m/z for BI01810284, 525.6 to 425.7 m/z for BI01802983 and 1021.6 to 624.2 m/z for BI01580883. Chromatograms were analyzed with Analyst (SCIEX) and pharmacokinetic parameters were calculated by non-compartmental analysis using BI-proprietary software.

[2] = Body weight / tolerability in xenograft studies; assay type: in vivo, mouse; conditions: A549 xenograft, 80 mg/kg p.o. once daily
Procedure: (§1) To establish subcutaneous tumours, mice were injected with 5 × 10^6 NCI-H1568 in PBS with 5% FCS or with 1 × 10^7 A549 cells in PBS with 5% FCS. Tumour diameters were measured with a caliper three times a week. The volume of each tumour (in mm^3) was calculated according to the formula [tumour volume = length × diameter^2 × π/6]. To monitor side effects of treatment, mice were inspected daily for abnormalities and body weight was determined daily after the start of treatment. Animals were sacrificed when the tumours reached a size of 1500 mm^3. Mice were randomised into treatment groups when the average tumour size reached ~210–220 mm^3. Group sizes were calculated individually for each tumour model based on tumour growth during model establishment experiments. A power analysis was performed using a sample size calculator (https://www.stat.ubc.ca/~rollin/stats/ssize/n2.html). For both models used in the study, 10 mice per group were used for each experiment. All administrations were dosed with 10 ml/kg (s.c. and oral). Control mice were dosed subcutaneously with 10% HP-β-CD in 50% Ringer solution and orally with 15% HP-β-CD, that means the control mouse treatment was corresponding to the solvent of the compounds. Compound 6 was dosed subcutaneously either in a d1-4 q3d, d6-8 q2d, d11-13 q2d treatment (Treatment 1) or a q3 or 4d treatment (Treatment 2).

SMARCA2 = SMARCA2 (Homo sapiens, UniProt P51531); experiment: SMARCA2 IHC in NCI-H1568 xenograft tumours; assay type: in vivo, mouse; design: from tissue; host or cells: subcutaneous NCI-H1568 or A549 xenograft tumours in BomTac:NMRI-Foxn1nu mice; conditions: individual tumours; for SMARCA2 (OD, normalised): background OD 0.03518 subtracted
SMARCA2, sequence (P51531 whole entry): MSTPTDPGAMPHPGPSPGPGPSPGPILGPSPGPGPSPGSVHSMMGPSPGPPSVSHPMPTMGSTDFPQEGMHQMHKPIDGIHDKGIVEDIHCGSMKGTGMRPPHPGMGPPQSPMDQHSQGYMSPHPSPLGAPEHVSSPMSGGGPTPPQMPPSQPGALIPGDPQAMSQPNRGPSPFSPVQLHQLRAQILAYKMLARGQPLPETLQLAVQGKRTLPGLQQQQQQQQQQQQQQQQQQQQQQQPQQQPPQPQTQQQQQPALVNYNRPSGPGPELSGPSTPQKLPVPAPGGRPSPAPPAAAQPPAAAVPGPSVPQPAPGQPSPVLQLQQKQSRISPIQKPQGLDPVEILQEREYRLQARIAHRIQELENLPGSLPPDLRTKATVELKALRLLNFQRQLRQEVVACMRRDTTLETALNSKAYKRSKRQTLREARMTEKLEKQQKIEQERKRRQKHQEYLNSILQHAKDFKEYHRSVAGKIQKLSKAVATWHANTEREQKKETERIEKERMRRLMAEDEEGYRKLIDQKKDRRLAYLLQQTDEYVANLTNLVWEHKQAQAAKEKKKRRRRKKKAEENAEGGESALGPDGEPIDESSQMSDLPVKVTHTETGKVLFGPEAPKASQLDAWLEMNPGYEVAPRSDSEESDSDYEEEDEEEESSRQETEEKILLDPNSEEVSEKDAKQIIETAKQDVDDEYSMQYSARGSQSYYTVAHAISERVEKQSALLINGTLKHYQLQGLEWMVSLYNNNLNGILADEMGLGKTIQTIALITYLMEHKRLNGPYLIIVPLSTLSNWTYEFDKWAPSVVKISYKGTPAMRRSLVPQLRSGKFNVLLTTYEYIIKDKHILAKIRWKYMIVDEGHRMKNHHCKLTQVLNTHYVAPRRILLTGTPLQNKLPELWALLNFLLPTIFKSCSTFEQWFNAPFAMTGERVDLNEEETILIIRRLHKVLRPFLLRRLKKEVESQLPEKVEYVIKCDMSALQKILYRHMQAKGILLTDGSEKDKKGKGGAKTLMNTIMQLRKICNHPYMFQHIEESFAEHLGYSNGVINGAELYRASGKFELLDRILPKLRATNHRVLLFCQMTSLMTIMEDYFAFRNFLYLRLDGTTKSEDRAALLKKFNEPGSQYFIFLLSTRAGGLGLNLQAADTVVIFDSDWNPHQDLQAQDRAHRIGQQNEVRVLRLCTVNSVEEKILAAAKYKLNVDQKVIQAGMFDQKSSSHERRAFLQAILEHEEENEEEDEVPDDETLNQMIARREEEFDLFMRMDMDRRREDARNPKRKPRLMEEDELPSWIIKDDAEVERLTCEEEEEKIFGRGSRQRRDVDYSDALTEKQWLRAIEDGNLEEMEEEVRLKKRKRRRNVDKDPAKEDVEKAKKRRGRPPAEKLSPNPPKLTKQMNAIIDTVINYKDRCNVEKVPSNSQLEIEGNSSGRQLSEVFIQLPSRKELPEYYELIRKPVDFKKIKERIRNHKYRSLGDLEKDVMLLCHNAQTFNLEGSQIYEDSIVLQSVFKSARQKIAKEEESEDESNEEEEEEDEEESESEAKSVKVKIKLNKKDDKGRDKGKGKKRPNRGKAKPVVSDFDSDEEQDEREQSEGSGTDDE
Procedure: as §1
Xenograft samples were fixed in 10% formaldehyde for 24 h and later moved to ethanol and embedded in paraffin. 2 µm-thick sections were cut using a microtome, then placed on glass slides ([…], silan printer slides PR-S:001), and subsequently dewaxed. SMARCA2 immunohistochemistry was carried out on the Leica BOND RX platform (Leica Biosystems) according to manufacturer’s instructions using a human-specific SMARCA2 antibody (Cell Signalling #11966 clone D9E8B RRID:AB_2797783 1:400) where the tissue underwent a heat-induced epitope retrieval for 20 min. After staining, the slides were cover-slipped with Shandon Consul-Mount glass covers, scanned using a slide scanner (3D HISTECH Ltd.). All slides were reviewed and evaluated for quality by a board-certified MD specialist in Anatomic Pathology (PC). Imaging analysis was performed using the digital pathology platform HALO (Indica Labs). A tissue-classifying algorithm was trained to selectively recognise viable tumour tissue against stroma, necrosis, and skin. The tissue classification output for each scan was reviewed and manually edited as necessary. A cell detection and scoring algorithm was trained to measure DAB optical density (OD) in the nuclei of tumour cells. A positivity threshold for DAB OD was determined by normalisation with respect to the DAB OD as calculated from bona fide negative tissue (e.g. murine stroma as background). The average, background-normalised DAB OD of tumour cell nuclei was used to quantitate SMARCA2 expression in each xenograft sample.

[3] = iv, 5 mg/kg, 5 mg/kg i.v., individual animals
[4] = iv, 5 mg/kg, 5 mg/kg i.v., NCA, individual animals
[5] = po, 30 mg/kg, 30 mg/kg p.o., individual animals
[6] = po, 30 mg/kg, 30 mg/kg p.o., NCA, individual animals

For `Cc1ncsc1-c1ccc(C(CCC(C)CCN2CCC(c3ccc4c(c3)n(C3CCCC3)c3nc(=O)c5c(Br)cccc5n43)CC2)NC(=O)C2CC(O)CN2C(=O)C(NC(=O)C2(F)CC2)C(C)(C)C)cc1` (centres unmarked) [ACBI2], the concentration at 24 h ([1]; intravenous, 5 mg/kg, 5 mg/kg i.v., time 24 h, individual animals, read-out: Concentration) was 0.0855 µM, the AUC [1, 3] was 34.2 µM·h and the AUC(0-inf) [1, 3] was 34.7 µM·h. For the same molecule, the concentration at 0.25 h ([1]; iv, 5 mg/kg, 5 mg/kg i.v., 0.25 h, individual animals, read-out: Plasma concentration) was 6.8 µM, the concentration at 1 h ([1]; iv, 5 mg/kg, 5 mg/kg i.v., 1 h, individual animals, read-out: Plasma concentration) was 5.13 µM and the concentration at 6 h ([1]; iv, 5 mg/kg, 5 mg/kg i.v., 6 h, individual animals, read-out: Plasma concentration) was 1.22 µM. The concentration at 24 h ([1]; iv, 5 mg/kg, 5 mg/kg i.v., 24 h, individual animals, read-out: Plasma concentration) was 0.0949 µM, the AUC [1, 4] was 34.2 µM·h and the AUC(0-inf) [1, 4] was 34.7 µM·h. For the same molecule, the clearance ([1]; iv, 5 mg/kg, 5 mg/kg i.v., NCA, individual animals, read-out: CL) was 0.135 L/h/kg, the Vd ([1]; iv, 5 mg/kg, 5 mg/kg i.v., NCA, individual animals, read-out: Vss) was 0.536 L/kg and the clearance ([1]; iv, 5 mg/kg, 5 mg/kg i.v., read-out: clearance) was 0.126 L/h/kg. The concentration at 0.333 h ([1]; oral, 30 mg/kg, 30 mg/kg p.o., time 0.333 h, individual animals, read-out: Concentration) was 0.898 µM, the concentration at 1 h ([1]; oral, 30 mg/kg, 30 mg/kg p.o., time 1 h, individual animals, read-out: Concentration) was 4.31 µM and the concentration at 2 h ([1]; oral, 30 mg/kg, 30 mg/kg p.o., time 2 h, individual animals, read-out: Concentration) was 4.29 µM. For the same molecule, the concentration at 6 h ([1]; oral, 30 mg/kg, 30 mg/kg p.o., time 6 h, individual animals, read-out: Concentration) was 2.75 µM, the concentration at 24 h ([1]; oral, 30 mg/kg, 30 mg/kg p.o., time 24 h, individual animals, read-out: Concentration) was 0.265 µM and the bioavailability ([1]; oral, 30 mg/kg, 30 mg/kg p.o. vs 5 mg/kg i.v., read-out: F% p.o. (oral bioavailability)) was 22%. For the same molecule, the bioavailability ([1]; po, 30 mg/kg, 30 mg/kg p.o. vs 5 mg/kg i.v., individual animals, read-out: F) was 21.5%, the AUC [1, 5] was 47.5 µM·h and the AUC(0-inf) [1, 5] was 49.5 µM·h. The concentration at 0.333 h ([1]; po, 30 mg/kg, 30 mg/kg p.o., 0.333 h, individual animals, read-out: Plasma concentration) was 0.898 µM, the concentration at 1 h ([1]; po, 30 mg/kg, 30 mg/kg p.o., 1 h, individual animals, read-out: Plasma concentration) was 4.31 µM and the concentration at 2 h ([1]; po, 30 mg/kg, 30 mg/kg p.o., 2 h, individual animals, read-out: Plasma concentration) was 4.29 µM. For the same molecule, the concentration at 6 h ([1]; po, 30 mg/kg, 30 mg/kg p.o., 6 h, individual animals, read-out: Plasma concentration) was 2.75 µM, the concentration at 24 h ([1]; po, 30 mg/kg, 30 mg/kg p.o., 24 h, individual animals, read-out: Plasma concentration) was 0.265 µM and the AUC [1, 6] was 47.5 µM·h. The AUC(0-inf) [1, 6] was 49.5 µM·h, the bioavailability ([1]; po, 30 mg/kg, 30 mg/kg p.o., NCA, individual animals, read-out: F) was 21.5% and the “tolerability” value [2] was “well tolerated”. For the same molecule, the “SMARCA2 (OD, normalised)” value (SMARCA2; 5 mg/kg, 48h) was 0.2432 and 0.2157 and 0.2065 and 0.129 and 0.1815, the “SMARCA2 Nuclear OD” value (SMARCA2; 5 mg/kg, 48h) was 0.2784 and 0.2509 and 0.2416 and 0.1642 and 0.2166 and the “SMARCA2 (OD, normalised)” value (SMARCA2; 20 mg/kg, 24h) was 0.05875 and 0.05583 and 0.06456 and 0.06581. The “SMARCA2 Nuclear OD” value (SMARCA2; 20 mg/kg, 24h) was 0.09393 and 0.09101 and 0.09973 and 0.101, the “SMARCA2 (OD, normalised)” value (SMARCA2; 20 mg/kg, 48h) was 0.06607 and 0.09312 and 0.06031 and 0.01981 and the “SMARCA2 Nuclear OD” value (SMARCA2; 20 mg/kg, 48h) was 0.1013 and 0.1283 and 0.09549 and 0.05499. The “SMARCA2 (OD, normalised)” value (SMARCA2; 100 mg/kg, 48h) was 0.01021 and 0.00729 and 0.00935 and 0.01389 and 0.01189 and the “SMARCA2 Nuclear OD” value (SMARCA2; 100 mg/kg, 48h) was 0.04539 and 0.04246 and 0.04453 and 0.04906 and 0.04706.
